target: T1, rPpAChE1 (Phlebotomus papatasi, UniProt M1F887); experiment: biochemical
T1 construct: gene AChE; cell lysate assayed

Compound	IC50 [nM]
CNC(=O)Oc1cccc2c1OC(C)(C)C2 [Carbofuran]	24
CNC(=O)Oc1ccc2c(c1)[C@]1(C)CCN(C)[C@@H]1N2C [Eserine]	3.2
CC[n+]1c(-c2ccccc2)c2cc(N)ccc2c2ccc(N)cc21 [Ethidium Bromide]	17100
CCOC(=O)CC(SP(=O)(OC)OC)C(=O)OCC (stereo not drawn) [Malaoxon]	4.36
CNC(=O)Oc1ccccc1OC(C)C [Propoxur]	220
Nc1c2c(nc3ccccc13)CCCC2 [Tacrine]	67
COc1cc2c3cc1Oc1cc(ccc1O)C[C@@H]1c4c(cc(OC)c(O)c4Oc4ccc(cc4)C[C@@H]3N(C)CC2)CC[N+]1(C)C [Tubocurarine]	143000
CNC(=O)Oc1cccc(C(C)(C)C)c1 [compound 2, 3-(tert-butyl)phenyl methylcarbamate]	36
CCC(C)n1cc(OC(=O)NC)cn1 (stereo not drawn) [compound 3, 1-(sec-butyl)-1H-pyrazol-4-yl methylcarbamate]	13
CNC(=O)Oc1cnn(CCC(C)C)c1 [compound 4, 1-isopentyl-1H-pyrazole-4-yl methylcarbamate]	75
CNC(=O)Oc1cnn(CC(C)C)c1 [compound 5, 1-isobutyl-1H-pyrazol-4-yl methylcarbamate]	76

system: CC(=O)SCC[N+](C)(C)C; experiment: modified Ellman assay; assay type: biochemical, Phlebotomus papatasi

Compound	Km [µM]
rPpAChE1 (Phlebotomus papatasi)	24

Reference: paper PMC4268798, “Acetylcholinesterase of the sand fly, Phlebotomus papatasi (Scopoli): construction, expression and biochemical properties of the G119S orthologous mutant” (Parasites & Vectors, 2014)
